The values that follow come from paper PMC11271275, “The structural insight into the functional modulation of human anion exchanger 3” (Nature Communications, 2024).

The target in data set [1] is T1, AE2 (human SLC4A2) (Homo sapiens, UniProt P04920).
T1 sequence (P04920 1-1241): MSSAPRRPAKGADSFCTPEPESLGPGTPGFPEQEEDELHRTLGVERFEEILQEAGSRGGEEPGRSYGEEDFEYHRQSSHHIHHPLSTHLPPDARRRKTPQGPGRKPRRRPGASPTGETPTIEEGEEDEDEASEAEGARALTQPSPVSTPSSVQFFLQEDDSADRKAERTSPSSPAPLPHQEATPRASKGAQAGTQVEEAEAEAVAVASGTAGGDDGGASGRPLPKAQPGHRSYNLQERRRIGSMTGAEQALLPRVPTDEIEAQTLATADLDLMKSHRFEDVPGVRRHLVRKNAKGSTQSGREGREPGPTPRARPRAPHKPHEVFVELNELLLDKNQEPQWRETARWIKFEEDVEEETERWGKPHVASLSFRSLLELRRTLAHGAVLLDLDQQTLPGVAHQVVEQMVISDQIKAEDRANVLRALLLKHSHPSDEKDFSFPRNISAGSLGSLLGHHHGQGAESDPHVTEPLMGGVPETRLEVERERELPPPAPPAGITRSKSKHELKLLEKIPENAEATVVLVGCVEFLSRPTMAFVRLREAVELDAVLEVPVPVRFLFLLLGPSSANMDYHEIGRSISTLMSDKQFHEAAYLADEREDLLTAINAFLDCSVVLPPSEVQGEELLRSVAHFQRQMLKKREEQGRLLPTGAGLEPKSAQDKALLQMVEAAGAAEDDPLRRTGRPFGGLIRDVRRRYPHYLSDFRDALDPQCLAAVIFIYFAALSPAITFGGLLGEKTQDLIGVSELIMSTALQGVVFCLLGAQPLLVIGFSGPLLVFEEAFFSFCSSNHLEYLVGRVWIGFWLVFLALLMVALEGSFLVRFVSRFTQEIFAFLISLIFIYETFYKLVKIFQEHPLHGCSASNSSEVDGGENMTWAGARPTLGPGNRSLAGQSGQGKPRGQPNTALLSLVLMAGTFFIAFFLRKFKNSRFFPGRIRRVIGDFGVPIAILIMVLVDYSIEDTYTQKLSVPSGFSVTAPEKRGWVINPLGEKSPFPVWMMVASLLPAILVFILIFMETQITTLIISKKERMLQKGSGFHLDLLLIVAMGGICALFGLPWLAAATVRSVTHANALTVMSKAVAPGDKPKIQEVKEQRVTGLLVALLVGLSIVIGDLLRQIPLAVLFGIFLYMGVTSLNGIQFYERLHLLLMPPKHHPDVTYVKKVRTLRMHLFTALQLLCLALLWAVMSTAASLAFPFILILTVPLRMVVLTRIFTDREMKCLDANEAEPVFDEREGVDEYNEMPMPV
The data set is described as follows: BCECF intracellular pH assay on Cl- reintroduction, SLC4A2-KO HEK293F cells. The format is cell-based. On the set-up: overexpressed in SLC4A2-KO HEK293F cells; P04920-1 printed for the AE2 part of the chimera. Particulars: 40 µM DIDS; 25 mM NaHCO3, pH 7.4.

The target of data set [2] is T1, AE2 (human SLC4A2). Particulars: Cl-/HCO3- exchange; 25 mM NaHCO3, pH 7.4.
The target of data set [3] is hAE3^NTD2^TMD chimera (NTD of hAE3 fused to TMD of hAE2) (human) (UniProt P04920). The data set is described as follows: cryo-EM structure; hAE3^NTD2^TMD chimera in GDN; 300 kV Titan Krios, C2 symmetry; 3.35 Å; TMDs inward-facing.
Data set [4] concerns the molecule itself. The experiment in a line: SEC + other: 200 kV cryo-EM analysis; Superose 6 Increase 10/300 GL, 150 mM NaCl, 20 mM HEPES pH 7.4, 0.01% GDN, 4 °C; protein solubilised with LMNG.

As for `O=S(=O)(O)c1cc(N=C=S)ccc1/C=C/c1ccc(N=C=S)cc1S(=O)(=O)O` [DIDS, 4,4’-diisothiocyanatostilbene-2,2’-disulfonate], at AE2 (human SLC4A2) [1], the “inhibition at 40 μM” value is “activities of AE2 and AE3 could be inhibited by adding DIDS”.

With `O=C(O)O` [HCO3^−], on AE2 (human SLC4A2) [2], the “BCECF intracellular pH assay on Cl- reintroduction, SLC4A2-KO HEK293F cells” value is on record as “a lower pH-modulating function than that observed for AE2”.

In data set [3], “hAE3^NTD2^TMD chimera (NTD of hAE3 fused to TMD of hAE2) (from UniProt P04920-1 672-1241)” returned a stoichiometry N of 2.

B1: human anion exchanger 3, cardiac isoform (hAE3) (natural protein, UniProt P48751-1 300-1232, looked up)
chain: GLAPILRRKKKKKKLDRRPHEVFVELNELMLDRSQEPHWRETARWIKFEEDVEEETERWGKPHVASLSFRSLLELRRTIAHGAALLDLEQTTLPGIAHLVVETMIVSDQIRPEDRASVLRTLLLKHSHPNDDKDSGFFPRNPSSSSMNSVLGNHHPTPSHGPDGAVPTMADDLGEPAPLWPHDPDAKEKPLHMPGGDGHRGKSLKLLEKIPEDAEATVVLVGCVPFLEQPAAAFVRLNEAVLLESVLEVPVPVRFLFVMLGPSHTSTDYHELGRSIATLMSDKLFHEAAYQADDRQDLLSAISEFLDGSIVIPPSEVEGRDLLRSVAAFQRELLRKRREREQTKVEMTTRGGYTAPGKELSLELGGSEATPEDDPLLRTGSVFGGLVRDVRRRYPHYPSDLRDALHSQCVAAVLFIYFAALSPAITFGGLLGEKTEGLMGVSELIVSTAVLGVLFSLLGAQPLLVVGFSGPLLVFEEAFFKFCRAQDLEYLTGRVWVGLWLVVFVLALVAAEGSFLVRYISPFTQEIFAFLISLIFIYETFYKLYKVFTEHPLLPFYPPEGALEGSLDAGLEPNGSALPPTEGPPSPRNQPNTALLSLILMLGTFFIAFFLRKFRNSRFLGGKARRIIGDFGIPISILVMVLVDYSITDTYTQKLTVPTGLSVTSPDKRSWFIPPLGSARPFPPWMMVAAAVPALLVLILIFMETQITALIVSQKARRLLKGSGFHLDLLLIGSLGGLCGLFGLPWLTAATVRSVTHVNALTVMRTAIAPGDKPQIQEVREQRVTGVLIASLVGLSIVMGAVLRRIPLAVLFGIFLYMGVTSLSGIQLSQRLLLILMPAKHHPEQPYVTKVKTWRMHLFTCIQLGCIALLWVVKSTAASLAFPFLLLLTVPLRHCLLPRLFQDRELQALDSEDAEPNFDEDGQDEYNELHMPV
notes: Anion exchanger 3 (AE3, SLC4A3), human, cardiac isoform; amino acids 300-1232 by the numbering of UniProt P48751-1 (results); the methods name the cDNA as human Cardiac Anion Exchanger 3, UniProt P48751-2; the introduction says cAE3 lacks residues 1-296 of bAE3; A TEV protease site follows the N-terminal tags in the modified pCAGGS vector; no cleavage is described; The N-terminal domain was not …
For B1, in data set [4], the “stoichiometry N” value stood at 2.
